Assay results as given in PMC4676015, “Variant fatty acid-like molecules Conjugation, novel approaches for extending the stability of therapeutic peptides” (Scientific Reports, 2015).

biological target: T1, GLP-1 receptor (GLP-1R) (Rattus norvegicus, UniProt P32301); assay: GLP-1 receptor binding assay (cellular ELISA)
T1 construct: endogenous in cells; host or cells: rat INS-1 cells
T1 sequence (P32301 22-463): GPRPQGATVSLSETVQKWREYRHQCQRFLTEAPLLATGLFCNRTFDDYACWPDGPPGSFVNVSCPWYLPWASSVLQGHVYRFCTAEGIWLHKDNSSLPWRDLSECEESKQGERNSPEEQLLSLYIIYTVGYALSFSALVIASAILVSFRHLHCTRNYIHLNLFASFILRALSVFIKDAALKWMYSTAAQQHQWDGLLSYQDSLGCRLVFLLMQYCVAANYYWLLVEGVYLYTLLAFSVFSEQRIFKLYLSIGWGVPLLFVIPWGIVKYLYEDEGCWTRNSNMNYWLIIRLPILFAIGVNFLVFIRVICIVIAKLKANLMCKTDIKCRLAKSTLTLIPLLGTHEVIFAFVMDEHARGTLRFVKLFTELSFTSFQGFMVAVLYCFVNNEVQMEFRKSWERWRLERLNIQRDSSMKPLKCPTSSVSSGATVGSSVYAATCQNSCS
Method: Cells were rinsed with PBS and fixed with 4% paraformaldehyde (Thermo Scientific) for 10 min at room temperature and quenched for 5 min with 2% glycine in PBS, pH 7.5. […] After a 2 h incubation at 37 °C in a final volume of 100 μl, the excess peptides were washed, and the cells were blocked with 5% BSA (BD Biosciences). […] Colorimetric changes were analyzed by reading the absorbance at 450 nm in a SpectraMax M5 (Molecular Device) microplate reader. The peptide concentration was plotted against UV absorbance, and the Kd was calculated using Origin 7.0 software.

Row | SMILES | Kd
1 | CCCCCCCCNC(=O)CC[C@H](NC(=O)[C@H](CCCCN)NC(=O)[C@H](C)NC(=O)[C@H](C)NC(=O)[C@H](CCC(N)=O)NC(=O)CNC(=O)[C@H](CCC(=O)O)NC(=O)[C@H](CC(C)C)NC(=O)[C@H](Cc1ccc(O)cc1)NC(=O)[C@H](CO)NC(=O)[C@H](CO)NC(=O)[C@@H](NC(=O)[C@H](CC(=O)O)NC(=O)[C@H](CO)NC(=O)[C@@H](NC(=O)[C@H](Cc1ccccc1)NC(=O)[C@@H](NC(=O)CNC(=O)[C@H](CCC(=O)O)NC(=O)[C@H](C)NC(=O)[C@@H](N)Cc1c[nH]cn1)[C@@H](C)O)[C@@H](C)O)C(C)C)C(=O)N[C@@H](Cc1ccccc1)C(=O)N[C@H](C(=O)N[C@@H](C)C(=O)N[C@@H](Cc1c[nH]c2ccccc12)C(=O)N[C@@H](CC(C)C)C(=O)N[C@H](C(=O)N[C@@H](CCCCN)C(=O)NCC(=O)N[C@@H](CCCNC(=N)N)C(=O)NCC(=O)O)C(C)C)[C@@H](C)CC [compound 16] | 0.0223 ± 0.00046 µM
2 | CCCCCCCCCCCCCCCC(=O)NCCCC[C@H](NC(=O)[C@H](C)NC(=O)[C@H](C)NC(=O)[C@H](CCC(N)=O)NC(=O)CNC(=O)[C@H](CCC(=O)O)NC(=O)[C@H](CC(C)C)NC(=O)[C@H](Cc1ccc(O)cc1)NC(=O)[C@H](CO)NC(=O)[C@H](CO)NC(=O)[C@@H](NC(=O)[C@H](CC(=O)O)NC(=O)[C@H](CO)NC(=O)[C@@H](NC(=O)[C@H](Cc1ccccc1)NC(=O)[C@@H](NC(=O)CNC(=O)[C@H](CCC(=O)O)NC(=O)[C@H](C)NC(=O)[C@@H](N)Cc1c[nH]cn1)[C@@H](C)O)[C@@H](C)O)C(C)C)C(=O)N[C@@H](CCC(=O)O)C(=O)N[C@@H](Cc1ccccc1)C(=O)N[C@H](C(=O)N[C@@H](C)C(=O)N[C@@H](Cc1c[nH]c2ccccc12)C(=O)N[C@@H](CC(C)C)C(=O)N[C@H](C(=O)N[C@@H](CCCCN)C(=O)NCC(=O)N[C@@H](CCCNC(=N)N)C(=O)NCC(=O)O)C(C)C)[C@@H](C)CC [compound 3] | 0.0338 ± 0.00121 µM
3 | CCCCCCCCCCCCNC(=O)CC[C@H](NC(=O)[C@H](C)NC(=O)[C@@H](N)Cc1c[nH]cn1)C(=O)NCC(=O)N[C@H](C(=O)N[C@@H](Cc1ccccc1)C(=O)N[C@H](C(=O)N[C@@H](CO)C(=O)N[C@@H](CC(=O)O)C(=O)N[C@H](C(=O)N[C@@H](CO)C(=O)N[C@@H](CO)C(=O)N[C@@H](Cc1ccc(O)cc1)C(=O)N[C@@H](CC(C)C)C(=O)N[C@@H](CCC(=O)O)C(=O)NCC(=O)N[C@@H](CCC(N)=O)C(=O)N[C@@H](C)C(=O)N[C@@H](C)C(=O)N[C@@H](CCCCN)C(=O)N[C@@H](CCC(=O)O)C(=O)N[C@@H](Cc1ccccc1)C(=O)N[C@H](C(=O)N[C@@H](C)C(=O)N[C@@H](Cc1c[nH]c2ccccc12)C(=O)N[C@@H](CC(C)C)C(=O)N[C@H](C(=O)N[C@@H](CCCCN)C(=O)NCC(=O)N[C@@H](CCCNC(=N)N)C(=O)NCC(=O)O)C(C)C)[C@@H](C)CC)C(C)C)[C@@H](C)O)[C@@H](C)O [compound 8] | 0.0967 ± 0.00295 µM
4 | CCCCCCCC(=O)NCCCC[C@H](NC(=O)[C@@H](NC(=O)[C@H](CC(C)C)NC(=O)[C@H](Cc1c[nH]c2ccccc12)NC(=O)[C@H](C)NC(=O)[C@@H](NC(=O)[C@H](Cc1ccccc1)NC(=O)[C@H](CCC(=O)O)NC(=O)[C@H](CCCCN)NC(=O)[C@H](C)NC(=O)[C@H](C)NC(=O)[C@H](CCC(N)=O)NC(=O)CNC(=O)[C@H](CCC(=O)O)NC(=O)[C@H](CC(C)C)NC(=O)[C@H](Cc1ccc(O)cc1)NC(=O)[C@H](CO)NC(=O)[C@H](CO)NC(=O)[C@@H](NC(=O)[C@H](CC(=O)O)NC(=O)[C@H](CO)NC(=O)[C@@H](NC(=O)[C@H](Cc1ccccc1)NC(=O)[C@@H](NC(=O)CNC(=O)[C@H](CCC(=O)O)NC(=O)[C@H](C)NC(=O)[C@@H](N)Cc1c[nH]cn1)[C@@H](C)O)[C@@H](C)O)C(C)C)[C@@H](C)CC)C(C)C)C(=O)NCC(=O)N[C@@H](CCCNC(=N)N)C(=O)NCC(=O)O [compound 4] | 0.0154 ± 0.00067 µM
5 | CCCCCCCCCCCCNC(=O)C[C@H](NC(=O)[C@H](CO)NC(=O)[C@@H](NC(=O)[C@H](Cc1ccccc1)NC(=O)[C@@H](NC(=O)CNC(=O)[C@H](CCC(=O)O)NC(=O)[C@H](C)NC(=O)[C@@H](N)Cc1c[nH]cn1)[C@@H](C)O)[C@@H](C)O)C(=O)N[C@H](C(=O)N[C@@H](CO)C(=O)N[C@@H](CO)C(=O)N[C@@H](Cc1ccc(O)cc1)C(=O)N[C@@H](CC(C)C)C(=O)N[C@@H](CCC(=O)O)C(=O)NCC(=O)N[C@@H](CCC(N)=O)C(=O)N[C@@H](C)C(=O)N[C@@H](C)C(=O)N[C@@H](CCCCN)C(=O)N[C@@H](CCC(=O)O)C(=O)N[C@@H](Cc1ccccc1)C(=O)N[C@H](C(=O)N[C@@H](C)C(=O)N[C@@H](Cc1c[nH]c2ccccc12)C(=O)N[C@@H](CC(C)C)C(=O)N[C@H](C(=O)N[C@@H](CCCCN)C(=O)NCC(=O)N[C@@H](CCCNC(=N)N)C(=O)NCC(=O)O)C(C)C)[C@@H](C)CC)C(C)C [compound 11] | 0.0974 ± 0.00211 µM
6 | CCCCCCCCCCCCCCCCNC(=O)CC[C@H](NC(=O)[C@H](C)NC(=O)[C@@H](N)Cc1c[nH]cn1)C(=O)NCC(=O)N[C@H](C(=O)N[C@@H](Cc1ccccc1)C(=O)N[C@H](C(=O)N[C@@H](CO)C(=O)N[C@@H](CC(=O)O)C(=O)N[C@H](C(=O)N[C@@H](CO)C(=O)N[C@@H](CO)C(=O)N[C@@H](Cc1ccc(O)cc1)C(=O)N[C@@H](CC(C)C)C(=O)N[C@@H](CCC(=O)O)C(=O)NCC(=O)N[C@@H](CCC(N)=O)C(=O)N[C@@H](C)C(=O)N[C@@H](C)C(=O)N[C@@H](CCCCN)C(=O)N[C@@H](CCC(=O)O)C(=O)N[C@@H](Cc1ccccc1)C(=O)N[C@H](C(=O)N[C@@H](C)C(=O)N[C@@H](Cc1c[nH]c2ccccc12)C(=O)N[C@@H](CC(C)C)C(=O)N[C@H](C(=O)N[C@@H](CCCCN)C(=O)NCC(=O)N[C@@H](CCCNC(=N)N)C(=O)NCC(=O)O)C(C)C)[C@@H](C)CC)C(C)C)[C@@H](C)O)[C@@H](C)O [compound 9] | 0.09974 ± 0.00092 µM
7 | CCCCCCCCNC(=O)C[C@H](NC(=O)[C@H](CO)NC(=O)[C@@H](NC(=O)[C@H](Cc1ccccc1)NC(=O)[C@@H](NC(=O)CNC(=O)[C@H](CCC(=O)O)NC(=O)[C@H](C)NC(=O)[C@@H](N)Cc1c[nH]cn1)[C@@H](C)O)[C@@H](C)O)C(=O)N[C@H](C(=O)N[C@@H](CO)C(=O)N[C@@H](CO)C(=O)N[C@@H](Cc1ccc(O)cc1)C(=O)N[C@@H](CC(C)C)C(=O)N[C@@H](CCC(=O)O)C(=O)NCC(=O)N[C@@H](CCC(N)=O)C(=O)N[C@@H](C)C(=O)N[C@@H](C)C(=O)N[C@@H](CCCCN)C(=O)N[C@@H](CCC(=O)O)C(=O)N[C@@H](Cc1ccccc1)C(=O)N[C@H](C(=O)N[C@@H](C)C(=O)N[C@@H](Cc1c[nH]c2ccccc12)C(=O)N[C@@H](CC(C)C)C(=O)N[C@H](C(=O)N[C@@H](CCCCN)C(=O)NCC(=O)N[C@@H](CCCNC(=N)N)C(=O)NCC(=O)O)C(C)C)[C@@H](C)CC)C(C)C [compound 10] | 0.0883 ± 0.00327 µM
8 | CCCCCCCCNC(=O)CC[C@H](NC(=O)[C@H](CC(C)C)NC(=O)[C@H](Cc1ccc(O)cc1)NC(=O)[C@H](CO)NC(=O)[C@H](CO)NC(=O)[C@@H](NC(=O)[C@H](CC(=O)O)NC(=O)[C@H](CO)NC(=O)[C@@H](NC(=O)[C@H](Cc1ccccc1)NC(=O)[C@@H](NC(=O)CNC(=O)[C@H](CCC(=O)O)NC(=O)[C@H](C)NC(=O)[C@@H](N)Cc1c[nH]cn1)[C@@H](C)O)[C@@H](C)O)C(C)C)C(=O)NCC(=O)N[C@@H](CCC(N)=O)C(=O)N[C@@H](C)C(=O)N[C@@H](C)C(=O)N[C@@H](CCCCN)C(=O)N[C@@H](CCC(=O)O)C(=O)N[C@@H](Cc1ccccc1)C(=O)N[C@H](C(=O)N[C@@H](C)C(=O)N[C@@H](Cc1c[nH]c2ccccc12)C(=O)N[C@@H](CC(C)C)C(=O)N[C@H](C(=O)N[C@@H](CCCCN)C(=O)NCC(=O)N[C@@H](CCCNC(=N)N)C(=O)NCC(=O)O)C(C)C)[C@@H](C)CC [compound 13] | 0.0187 ± 0.00136 µM
9 | CCCCCCCCNC(=O)CC[C@H](NC(=O)[C@H](C)NC(=O)[C@@H](N)Cc1c[nH]cn1)C(=O)NCC(=O)N[C@H](C(=O)N[C@@H](Cc1ccccc1)C(=O)N[C@H](C(=O)N[C@@H](CO)C(=O)N[C@@H](CC(=O)O)C(=O)N[C@H](C(=O)N[C@@H](CO)C(=O)N[C@@H](CO)C(=O)N[C@@H](Cc1ccc(O)cc1)C(=O)N[C@@H](CC(C)C)C(=O)N[C@@H](CCC(=O)O)C(=O)NCC(=O)N[C@@H](CCC(N)=O)C(=O)N[C@@H](C)C(=O)N[C@@H](C)C(=O)N[C@@H](CCCCN)C(=O)N[C@@H](CCC(=O)O)C(=O)N[C@@H](Cc1ccccc1)C(=O)N[C@H](C(=O)N[C@@H](C)C(=O)N[C@@H](Cc1c[nH]c2ccccc12)C(=O)N[C@@H](CC(C)C)C(=O)N[C@H](C(=O)N[C@@H](CCCCN)C(=O)NCC(=O)N[C@@H](CCCNC(=N)N)C(=O)NCC(=O)O)C(C)C)[C@@H](C)CC)C(C)C)[C@@H](C)O)[C@@H](C)O [compound 7] | 0.104 ± 0.00342 µM
